Results from patent EP0743938B1, “SUBSTITUTED SPIRO COMPOUNDS FOR THE TREATMENT OF INFLAMMATION” (G.D. SEARLE & CO., priority 1994, dated 1995).

How the values were obtained:
[1] = test system: Male Sprague-Dawley rats; assay: Rat Carrageenan Foot Pad Edema Test; format: in vivo; conditions: po, 3 h, rats dosed orally, 10mg/kg body weight, one hour before carrageenan, foot volume three hours after carrageenan, read-out: RAT PAW EDEMA % Inhibition @ 10mg/kg body weight
Method: Male Sprague-Dawley rats were selected in each group so that the average body weight was as close as possible. Rats were fasted with free access to water for over sixteen hours prior to the test. The rats were dosed orally (1 mL) with compounds suspended in vehicle containing 0.5% methylcellulose and .025% surfactant, or with vehicle alone. One hour later a subplantar injection of 0.1 mL of 1% solution of carrageenan/sterile 0.9% saline was administered and the volume of the injected foot was measured with a displacement plethysmometer connected to a pressure transducer with a digital indicator. Three hours after the injection of the carrageenan, the volume of the foot was again measured.

[2] = test system: Male Sprague-Dawley rats; assay: Rat Carrageenan-induced Analgesia Test; format: in vivo; conditions: po, 3 h, read-out: ANALGESIA % Inhibition @ 10mg/kg body weight, rats dosed orally, hyperalgesic foot withdrawal, thermal stimulation three hours after carrageenan
[3] = biological target: COX-1 (Homo sapiens, UniProt P23219); conditions: read-out: COX I ID50 µM
COX-1, sequence (P23219 24-599): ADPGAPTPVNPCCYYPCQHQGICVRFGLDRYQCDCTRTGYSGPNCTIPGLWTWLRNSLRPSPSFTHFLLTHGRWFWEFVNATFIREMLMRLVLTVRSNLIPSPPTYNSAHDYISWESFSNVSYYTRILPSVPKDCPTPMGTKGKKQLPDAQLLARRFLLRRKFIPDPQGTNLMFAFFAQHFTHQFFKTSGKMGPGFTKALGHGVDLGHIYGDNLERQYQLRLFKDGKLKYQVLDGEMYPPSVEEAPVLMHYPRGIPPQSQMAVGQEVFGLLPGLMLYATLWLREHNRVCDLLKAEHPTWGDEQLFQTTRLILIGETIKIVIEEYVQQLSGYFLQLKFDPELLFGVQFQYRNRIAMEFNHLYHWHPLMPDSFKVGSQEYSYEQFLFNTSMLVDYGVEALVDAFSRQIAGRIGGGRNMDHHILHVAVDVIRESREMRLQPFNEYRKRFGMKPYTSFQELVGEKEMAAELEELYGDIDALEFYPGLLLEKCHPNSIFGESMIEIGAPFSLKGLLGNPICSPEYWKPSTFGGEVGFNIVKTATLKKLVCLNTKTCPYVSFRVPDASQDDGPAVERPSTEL

Row | Compound | inhibition in vivo at 10 mg/kg [1] [%] | inhibition in vivo at 10 mg/kg [2] [%] | IC50 [3] [µM]
1 | COc1ccc(C2=C(c3ccc(S(C)(=O)=O)cc3)CC3(CC3)C2)cc1Cl [Example 6, 5-(3-Chloro-4-methoxyphenyl)-6-[4-(methylsulfonyl)phenyl)spiro[2.4]hept-5-ene] | 21 | 7 | 
2 | CS(=O)(=O)c1ccc(C2=C(c3ccc(C(F)(F)F)cc3)CC3(CC3)C2)cc1 [Example 19, 6-[4-(Methylsulfonyl)phenyl)-5-(4-trifluoromethylphenyl)spiro[2.4]hept-5-ene] | 11 | 9 | 
3 | COc1ccc(C2=C(c3ccc(S(C)(=O)=O)cc3)CC3(CC3)C2)cc1F [Example 8, 5-(3-Fluoro-4-methoxyphenyl)-6-[4-(methylsulfonyl)phenyl]spiro[2.4]hept-5-ene] | 15 | 8 | 
4 | NS(=O)(=O)c1ccc(C2=C(c3ccc(C(F)(F)F)cc3)CC3(CC3)C2)cc1 [Example 25, 4-[6-(4-Trifluoromethylphenyl)spiro[2.4]hept-5-en-5-yl]benzenesulfonamide] | 34 | 22 | 
5 | CS(=O)(=O)c1ccc(C2=C(c3ccc(OC(F)(F)F)cc3)CC3(CC3)C2)cc1 [Example 14, 6-[4-(Methylsulfonyl)phenyl]-5-(4-trifluoromethoxyphenyl)spiro[2.4]hept-5-ene] | 18 |  | 
6 | CS(=O)(=O)c1ccc(C2=C(c3ccc(F)cc3)CC3(CC3)C2)cc1 [Example 1, 5-(4-Fluorophenyl)-6-[4-(methylsulfonyl)phenyl]spiro[2.4]hept-5-ene] | 32 | 15 | 
7 | CS(=O)(=O)c1ccc(C2=C(c3ccc(F)c(Cl)c3)CC3(CC3)C2)cc1 [Example 22, 5-(3-Chloro-4-fluorophenyl)-6-[4-(methylsulfonyl)phenyl]spiro[2.4]hept-5-ene] | 21 | 10 | 6
8 | NS(=O)(=O)c1ccc(C2=C(c3ccc(F)cc3)CC3(CCC3)C2)cc1 [Example 4, 4-[7-(4-Fluorophenyl)spiro[3.4]oct-6-en-6-yl]benzenesulfonamide] | 17 |  | 
9 | NS(=O)(=O)c1ccc(C2=C(c3ccc(F)cc3)CC3(CC3)C2)cc1 [Example 2, 4-[6-(4-Fluorophenyl)spiro[2.4]hept-5-en-5-yl]benzenesulfonamide] | 57 | 34 | 
10 | COc1ccc(C2=C(c3ccc(S(C)(=O)=O)cc3)CC3(CC3)C2)cc1Br [Example 16, 5-(3-Bromo-4-methoxyphenyl)-6-[4-(methylsulfonyl)phenyl]spiro[2.4]hept-5-ene] | 6 |  | 
11 | CS(=O)(=O)c1ccc(C2=C(c3ccc(Cl)c(Cl)c3)CC3(CC3)C2)cc1 [Example 27, 5-(3,4-Dichlorophenyl)-6-[4-(methylsulfonyl)phenyl]spiro[2.4]hept-5-ene] | 15 |  | 
12 | COc1c(Cl)cc(C2=C(c3ccc(S(C)(=O)=O)cc3)CC3(CC3)C2)cc1Cl [Example 20, 5-(3,5-Dichloro-4-methoxyphenyl)-6-[4-(methylsulfonyl)phenyl]spiro[2.4]hept-5-ene] | 24 | 28 | 
13 | NS(=O)(=O)c1ccc(C2=C(c3ccc(Cl)c(Cl)c3)CC3(CC3)C2)cc1 [Example 29, 4-[6-(3,4-Dichlorophenyl)spiro[2.4]hept-5-en-5-yl]benzenesulfonamide] | 24 | 29 | 
14 | COc1ccc(C2=C(c3ccc(S(N)(=O)=O)cc3)CC3(CC3)C2)cc1F [Example 9, 4-[6-(3-Fluoro-4-methoxyphenyl)spiro[2.4]hept-5-en-5-yl]benzenesulfonamide] | 15 | 17 | 
15 | CS(=O)(=O)c1ccc(C2=C(c3ccc(F)cc3)CC3(CCC3)C2)cc1 [Example 3, 6-(4-Fluorophenyl)-7-[4-(methylsulfonyl)phenyl]spiro[3.4]oct-6-ene] | 24 |  | 
16 | COc1ccc(C2=C(c3ccc(S(N)(=O)=O)cc3)CC3(CC3)C2)cc1Cl [Example 7, 4-[6-(3-Chloro-4-methoxyphenyl)spiro[2.4]hept-5-en-5-yl]benzenesulfonamide] | 20 | 18 | 
